The text below walks through data of patent US20130302247A1, “SYNTHESIS OF FLUOROARACHIDONIC ACID AND METHODS OF USE THEREOF” (The United States of America, as represented by the …, priority 2012, published 2013).

Data set [1] is described as follows: Plasma kinetics of FAA during 5-min intravenous infusion in unanesthetized mice. The format is in vivo, C57BL/6J male mice. The following applies: 5-minute intravenous infusion; for plasma area under the curve: mice. The procedure:
(§1) The plasma and brain kinetics of the purified [^19F]FAA were tested in unanesthetized adult C57BL/6J male mice. The study was conducted following the National Institutes of Health Guidelines for the Care and Use of Laboratory Animals (Publication no. 80-23) and was approved by the Animal Care and Use Committee of the Eunice Kennedy Shriver National Institute of Child Health and Human Development. Male C57BL/6J mice were obtained at the age of 2-3 months. The mice were maintained in an animal facility in which temperature, humidity, and light cycle were regulated with free access to water and a fixed diet (Rodent NIH-07) that contained (as fractional percent of total fatty acids), 30.6% saturated, 22.5% monounsaturated, […], 4.9% α-linolenic, 0.2% AA, 1.6% eicosapentaenoic, and 2.2% docosahexaenoic acid.
At 4-5 months of age, a mouse was anesthetized with […], and polyethylene catheters were inserted into the femoral artery and vein. The mouse was allowed to recover from surgery in an environment maintained at 25° C., with its hindquarters loosely wrapped and taped to a wooden block. During recovery, body temperature was maintained at 37° C. by means of a rectal probe and a heating element (Indicating Temperature Controller; Yellow Springs Instrument). […] Plasma samples were separated by centrifuging at 13,000 rpm for 1 min, and stored at −80° C. until they were analyzed. […]
Total lipids were extracted from plasma (7-10 μl) and from half brain (˜0.2 g) by the method of Folch et al (28). […] Each band was scraped into tubes containing di-17:0 PC for quantifying PL, CE, TG, EtnGpl, ChoGpl, PtdIns and PtdSer lipid fractions, or 17:0 heptadecaenoic acid to quantify brain UFAs. […]

A short description of data set [2]: Incorporation of [19F]FAA into brain lipids of unanesthetized mice (GC/MS, in vivo kinetic infusion model). Further details: species or system C57BL/6J male mice. The procedure:
as §1
At 4-5 months of age, a mouse was anesthetized with […], and polyethylene catheters were inserted into the femoral artery and vein. The mouse was allowed to recover from surgery in an environment maintained at 25° C., with its hindquarters loosely wrapped and taped to a wooden block. During recovery, body temperature was maintained at 37° C. by means of a rectal probe and a heating element (Indicating Temperature Controller; Yellow Springs Instrument). After 3 h of recovery, the unanesthetized mouse was infused intravenously for 5 min with 130 μl HEPES buffer (pH 7.4) containing 50 mg/ml fatty acid-free bovine serum albumin (BSA, Sigma), or 0.1 mg or 0.5 mg 20-fluoroarachidonic acid (20-FAA) dissolved in HEPES-BSA at a rate of 0.0223 (1+e^−0.32t) ml/min (t in seconds), using a computer-controlled variable rate infusion pump (No. 22; Harvard Apparatus). During infusion, timed arterial blood samples (˜20 μl) were collected in polyethylene-heparin lithium fluoride-coated Beckman centrifuge tubes at 0, 0.25, 0.5, 1.0, 1.5, 3.0, and 4.0 min, and 150 μl was collected at 4.9 min. Plasma samples were separated by centrifuging at 13,000 rpm for 1 min, and stored at −80° C. until they were analyzed. At 5 min, the mouse was anesthetized with sodium pentobarbital (50 mg/kg, i.v.) and subjected to head-focused microwave irradiation (5.5 kW, 0.9 s, 75% power output; Cober Electronics) to stop brain fatty acid metabolism (27). The brain was excised, dissected sagittally and stored at −80° C. until analysis.
Total lipids were extracted from plasma (7-10 μl) and from half brain (˜0.2 g) by the method of Folch et al (28). Heptadecanoic acid (17:0) was added as an internal standard to plasma prior to extraction. Total lipid extracts were separated by thin layer chromatography (TLC) on silica gel plates (Silica Gel 60A TLC plates; Whatman) that were pre-washed with chloroform/methanol (2:1 v/v) and activated by heating at 100° C. Neutral lipid subclasses including phospholipids (PLs), unesterified fatty acids (UFAs), triglycerides (TGs) and cholesteryl esters (CEs) were separated using a mixture of heptane:diethyl ether:glacial acetic acid (60:40:3 by volume) (29), and authentic PL, cholesterol, UFA, TG and CE standards were run in separate lanes to identify the bands. Phospholipid classes (EtnGpl, ethanolamine glycerophospholipid; ChoGpl, choline glycerophospholipid; PtdIns, phosphatidylinositol; PtdSer, phosphatidylserine) were separated in chloroform:methanol:H2O:glacial acetic acid (60:50:4:1 by volume) (30) and identified with authentic standards in separate lanes. The plates were sprayed with 0.03% (w/v) 6-p-toluidine-2-naphthalene sulfonic acid (Acros) in 50 mM Tris-HCl buffer (pH 7.4), and the lipid bands were visualized under UV light. Each band was scraped into tubes containing di-17:0 PC for quantifying PL, CE, TG, EtnGpl, ChoGpl, PtdIns and PtdSer lipid fractions, or 17:0 heptadecaenoic acid to quantify brain UFAs. Toluene (0.2 ml) was added to each tube. The UFAs were extracted from the scraped silica using 2:1 chloroform/methanol and 1.5 ml of 0.1 M KCl, dried and derivitized as described below. […]

For data set [3] the following is noted: mouse, intravenously injected, from ref (2); cited from earlier work.
Setting [4] is: mouse brain, 5-min i.v. infusion, mean±SD, n=3.

Some results are limits rather than exact numbers.

For `O=C(O)CCC/C=C\C/C=C\C/C=C\C/C=C\CCCCCF` [FAA, 20-Fluoroarachidonic acid], the “FAA concentration in plasma over time” value in data set [1] (0.3 or 1.6 nmol, FIG. 1) is listed as “increased over time in a dose-dependent manner”. In addition, in data set [1] (high dose (1.6 nmol)), the “plasma area under the curve” value amounted to 0.236 ± 0.0189 µM·h. Also, the “plasma area under the curve” value in data set [1] (low dose (0.3 nmol)) worked out at 0.0297 ± 0.0217 µM·h. Besides, the “FAA concentration within brain phospholipids (rank order)” value in data set [2] (both doses, end of 5-min infusion, FIG. 2-A) was “highest in PtdIns and ChoGpl, followed by EtnGpl and PtdSer”. The “FAA detected in brain unesterified fatty acid, triglyceride and cholesteryl ester fractions” value in data set [2] (end of 5-min infusion, mouse brain) was less than 0.01 nmol/g. For the same compound, the “incorporation coefficient k*, high versus low dose” value in data set [2] (mouse brain lipids, FIG. 3) was “lower for the high infusion dose than the low dose”. Further, in data set [2] (setting [4]), the “k* values, brain ChoGpl” value is 6.8 ± 2.6 ml/s/g × 10^4; the “k* values, brain EtnGpl” value stood at 2.8 ± 0.4 ml/s/g × 10^4; the “k* values, brain PtdIns” value was 8.6 ± 1.3 ml/s/g × 10^4; the “k* values, brain PtdSer” value was 0.4 ± 0.1 ml/s/g × 10^4. For the same compound, the “k* values, brain Total lipid” value in data set [2] (setting [4]) is listed as 15.0 ± 2.3 ml/s/g × 10^4. For the same compound, the “distribution of FAA in each phospholipid fraction, percentage of FAA in total phospholipid (rank order)” value in data set [2] (mouse brain, FIG. 2-B, p<0.01) is “highest in ChoGlp, followed by PtdIns, EtnGlp and PtdSer”.
For `CCCCC/C=C\C/C=C\C/C=C\C/C=C\CCCC(=O)O` [[1-^14C]AA], in data set [3], the “Published k* values, brain ChoGpl” value is 5.9 ± 1.4 ml/s/g × 10^4; the “Published k* values, brain EtnGpl” value is 5.7 ± 1.0 ml/s/g × 10^4; the “Published k* values, brain PtdIns” value is 6.8 ± 0.8 ml/s/g × 10^4; the “Published k* values, brain PtdSer” value is reported as 1.8 ± 0.5 ml/s/g × 10^4. The “Published k* values, brain Total lipid” value in data set [3] is reported as 22.6 ± 1.3 ml/s/g × 10^4.
